Data on one compound can be found in patent US20110217293A1, “Uses of morelloflavone” (priority 2008, published 2011).

Data set [1] concerns vascular smooth muscle cells. Kind of data set: BrdU incorporation assay. Also noted: effect on BrdU labelling indices: dose or concentration left out as unconfirmed. Format: cell-based, mouse. The protocol:
Mouse vascular smooth muscle cells, isolated as described (13), were maintained in 231 media (Cascade Biologics, Portland, Oreg.) supplemented with SMGS (Cascade Biologics) in a humidified incubator at 37° C. with 5% CO2. Cells from passages 4-9 were used in all experiments. All experiments were performed in subconfluent, unsynchronized cells growing in SMGS except for the lamellipodium formation assay.
Vascular smooth muscle cells were seeded at 2×10^4 cells per well in 96-well culture plates and incubated overnight. The next day, cells were found approximately 60-70% confluent. Cells were treated with various concentrations of morelloflavone ([…]) for 2 hrs and then pulsed with BrdU at 1 mM for 8 hrs. The amount of BrdU incorporated into the cells was quantified by BrdU Cell Proliferation Assay kit (Calbiochem, San Diego, Calif.), according to manufacturer's instructions. Briefly, the cells were fixed and permeabilized on tissue culture plastic, and incubated with anti-BrdU monoclonal antibody. After extensive washing, bound antibodies were visualized by goat anti-mouse IgG conjugated to horseradish peroxidase and tetra-methylbenzidine substrate and quantified by spectrophotometer at 450 nm. The protein content was determined using the Bradford assay (Bio-Rad, Hercules, Calif.).

Another data set concerns Rac1. Nature of the data set: GTPase activation assay, Rac1. Conditions: up to 10 mM. It counts as cell-based, mouse. The protocol: To assess the phosphorlyation status of ERK, […] of whole cell lysates was loaded onto SDS-PAGE, and Western blot analysis was done using anti-p-ERK (Santa Cruz; E-4; sc-7383) and anti-ERK (Santa Cruz; K-23; sc-94) antibodies. To detect active RhoA, Rac1 and Cdc42, generated GST-tagged RhoA binding domain of Rhotekin protein (GST-Rhotekin-RBD) and GST-tagged p21-binding domain of p21-activated kinase 1 (PAK1)(GST-PAK1-PBD) were first generated. Briefly, E. coli BL21 cells transformed with pGEX4T-PAK1-PBD or pGEX4T-Rh,otekin-RBD were grown at 37° C. and expression of recombinant protein was induced by addition of 0.1 mM IPTG for 3 hours. Cells were resuspended in lysis buffer (50 mM Tris-HCl, pH 8.0, 10% glycerol, 20% sucrose, 2 mM DTT, 1 mg/ml leupeptin, 1 mg/ml pepstatin, and 1 mg/ml aprotinin), sonicated, and centrifuged at 4° C. for 30 min at 45,000 g. The supernatant was incubated with glutathione sepharose 4B beads (GE-Amersham, Piscataway, N.J.) for 1 hour at 4° C., and then washed 3 times in lysis buffer. Using these GST-proteins, GTPase activation assays were performed as described. […]

A short description of data set [2]: Serum morelloflavone level by HPLC. It counts as in vivo, mouse. The settings on record: treated apoE−/− mice, oral 0.15% w/w diet, at sacrifice. On the procedure: Measurements were performed at a magnification of 200 using a Scion Image analysis computer program (Frederick, Md.). Data were obtained from the first 2 levels where endothelial denudation occurred. For each artery, the luminal area, area inside the internal elastic lamina (IELA), and the area encircled by external elastic lamina-IELA were measured. The intimal area (IA) was calculated as the IELA minus luminal area. For the determination of serum morelloflavone levels, animal sera were first digested by proteinase K in the presence of 0.01% SDS. Morelloflavone was then extracted into ethyl acetate and lyophilized.
The quantification of morelloflavone was performed by HPLC as described with following modifications. The pure morelloflavone was diluted to varying concentrations ([…]), aliquoted into multiple tubes, and lyophilized. The samples were dissolved in […] of 25% acetonitrile/0.55% acetic acid 10 of which […] were injected into a Vydac C-18 reversed phase HPLC column (Grace Davison Discovery Sciences, Deerfield, Ill.) in an Agilent 1100 HPLC system (San Jose, Calif.). […] The limit of detection (LOD) is defined as the concentration of morelloflavone that yielded a signal to noise of 2:1, and was calculated at 1.06 mM, from the 20 mM standard peak (signal to noise=37.6:1). […]

The target in another data set is T1, Lp-PLA2 (Homo sapiens, UniProt Q13093).
T1 sequence (Q13093 22-441): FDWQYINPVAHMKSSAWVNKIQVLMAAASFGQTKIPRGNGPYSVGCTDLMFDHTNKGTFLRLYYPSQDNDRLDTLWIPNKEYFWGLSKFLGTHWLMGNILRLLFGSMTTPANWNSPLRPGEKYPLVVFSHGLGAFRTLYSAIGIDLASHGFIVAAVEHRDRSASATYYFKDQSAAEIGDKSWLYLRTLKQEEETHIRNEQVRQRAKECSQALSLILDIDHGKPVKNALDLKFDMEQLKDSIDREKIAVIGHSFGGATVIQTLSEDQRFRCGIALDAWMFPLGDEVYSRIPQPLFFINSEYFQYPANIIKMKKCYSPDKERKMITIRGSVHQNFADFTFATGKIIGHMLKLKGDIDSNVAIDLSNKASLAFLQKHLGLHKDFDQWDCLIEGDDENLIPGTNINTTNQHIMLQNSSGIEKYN
Kind of data set: PLA2 enzyme activity assay, Lp-PLA2. Format: biochemical. Conditions: recombinant human Lp-PLA2, data not shown. On the procedure:
Recombinant human sPLA2 isoforms, Group IB, Group IIA, Group V, and Lp-PLA2 were obtained from R&D Systems and Cayman Chemical Co. sPLA2 enzyme activities in the presence of various concentrations of morelloflavone or other inhibitors were determined using a commercially available assay system according to the manufacturer's instructions (Cayman Chemical Co.). Thioetheramide-1-palmitylthio-2-palmitoylamido-1,2-dideoxy-sn-glycero-3-phosphorylcholine (T-PC) and methyl arachidonyl fluorophosphonate (MAFP) were used as inhibitors of sPLA2 (IB, IIA, and V) and Lp-PLA2, respectively, per manufacturers' instructions.

Where “and” joins values, the source holds several entries; their conditions need not be identical. Identical values can stand only once. Entries after “also recorded” stand apart in the source; their conditions may differ.

For `O=C1c2c(O)cc(O)cc2O[C@H](c2ccc(O)cc2)[C@H]1c1c(O)cc(O)c2c(=O)cc(-c3ccc(O)c(O)c3)oc12` [morelloflavone, 5,7, 4′, 5″, 7″, 3″, 4″-heptahydroxy-[3,8″]-flavonylflavanone], the “effect on BrdU labelling indices” value in data set [1] was “decreases BrdU labelling indices”. In addition, in data set [1] (concentrations up to 10 mM), the “effect on percentage of S-phase cells / DNA synthesis (BrdU)” value is reported as “did not significantly affect DNA synthesis; also recorded: does not affect the percentage of S-phase cells; also recorded: does not affect cell cycle progression”. Besides, the “activation of Rac1” value in the data set on Rac1 is listed as “no significant effect; also recorded: without affecting”. Also, the serum concentration of morelloflavone in data set [2] was 1370 nM and 1400 nM. Besides, on Lp-PLA2, the “inhibition of Lp-PLA2” value was “did not inhibit”.
